The results in this text go back to patent US9493412B2, “Pyrrolinone carboxamide compounds useful as endothelial lipase inhibitors” (BRISTOL-MYERS SQUIBB COMPANY, priority 2011, dated 2016).

In general, IC50 refers to the concentration that inhibits the measured activity by half.

In the assay the target is endothelial lipase (EL) (Homo sapiens (Human), UniProt Q9Y5X9). Put plainly: Endothelial lipase (EL) enzymatic assay with fluorescent substrate A10070 in DMPG vesicles. The assay is classed as biochemical. To be noted: conditioned media from HT-1080 cells overexpressing endogenous EL; 20 min preincubation at 37° C.; read-out: HLE_EL_CRC IC50. As to the method:
Endothelial lipase activity was measured using a fluorescent substrate, A10070, (Invitrogen, CA) doped into an artificial vesicle containing DMPG (Avanti Polar Lipids) as the excipient. Vesicles were prepared by combining 285 uL of 1 mM
DMPG in a 1:1 mixture of MeOH and CHCl3 with 15 uL of 1 mM A10070 in a 1:1 mixture of MeOH and CHCl3. The mixture was dried under nitrogen and resuspended in 150 uL of 50 mM HEPES pH 8.0 buffer containing 100 mM NaCl and 0.2 mM EDTA. The sample was allowed to sit at rt for 15 min and then was sonicated 3×4 mins on ice with a Branson Sonicator using duty cycle 1. This preparation provides vesicles with a mole fraction of 0.05 for the FRET substrate.
The enzymatic assay was measured using white, opaque 96-well half area plates. Each well contained 60 uL of assay buffer (50 mM HEPES pH 8.0, 50 mM NaCl and 1 mM CaCl2) and 2 ul of a DMSO solution containing compound of interest. Conditioned media obtained from HT-1080 cells, which were transformed by RAGE technology (Athersys) to overexpress endogenous EL, was added and the reaction was allowed to incubate for 20 min at 37° C. with gentle agitation. The reaction was started by the addition of 20 uL of a 1:4 dilution of vesicles. The final total reaction volume was 100 uL. The reaction rates were measured on a Gemini plate reader with an excitation wavelength of 488 nm and a emission of 530 nm. Readings were taken every 20 seconds for 10 min with agitation between each reading. The slope of the linear portion of the readout was used to calculate the rate of the reaction.
The exemplified examples disclosed in the present invention were tested in the EL assay described above and found having EL inhibitory activity.

endothelial lipase (EL), sequence (Q9Y5X9 21-500): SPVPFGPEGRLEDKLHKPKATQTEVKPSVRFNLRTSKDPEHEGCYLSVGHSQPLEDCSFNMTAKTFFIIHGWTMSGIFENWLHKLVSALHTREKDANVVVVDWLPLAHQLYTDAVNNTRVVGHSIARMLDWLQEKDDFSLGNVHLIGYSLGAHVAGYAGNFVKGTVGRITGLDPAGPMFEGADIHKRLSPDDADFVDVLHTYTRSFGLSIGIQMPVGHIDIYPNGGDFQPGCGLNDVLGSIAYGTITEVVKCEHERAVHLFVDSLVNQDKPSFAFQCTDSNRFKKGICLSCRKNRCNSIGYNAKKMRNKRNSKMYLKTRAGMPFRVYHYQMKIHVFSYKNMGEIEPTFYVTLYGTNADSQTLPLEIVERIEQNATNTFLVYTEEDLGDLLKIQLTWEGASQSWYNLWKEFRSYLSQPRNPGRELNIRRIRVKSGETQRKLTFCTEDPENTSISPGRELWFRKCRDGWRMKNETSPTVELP

On to `CN1CC(C(=O)NC2CC[C@H](c3ccccc3)C2)=C(O)C1=O` (single isomer, unassigned; isomer a) [Example 173], for which the 50% inhibitory concentration (IC50) turned out to be 8.47 µM.

On to `CN1CC(C(=O)NCc2ccc(Oc3ccc(F)cc3)cc2)=C(O)C1=O` [Example 8, N-(4-(4-fluorophenoxy)benzyl)-4-hydroxy-1-methyl-5-oxo-2,5-dihydro-1H-pyrrole-3-carboxamide], for which the IC50 is 0.0495 µM.

In the case of `CN1CC(C(=O)NCc2ccccc2-c2ccccc2)=C(O)C1=O` [Example 18, N-(biphenyl-2-ylmethyl)-4-hydroxy-1-methyl-5-oxo-2,5-dihydro-1H-pyrrole-3-carboxamide], the IC50 was found to be 0.027 µM.

Regarding `CC(C)CN1CC(C(=O)NCCCCc2nc(-c3ccc(Cl)c(Cl)c3)no2)=C(O)C1=O` [Example 21, N-(4-(3-(3,4-dichlorophenyl)-1,2,4-oxadiazol-5-yl)butyl)-4-hydroxy-1-isobutyl-5-oxo-2,5-dihydro-1H-pyrrole-3-carboxamide], the IC50 stood at 0.0154 µM.

For `CN1CC(C(=O)NCc2ccc(OC3CCOCC3)cc2)=C(O)C1=O` [Example 22, 4-hydroxy-1-methyl-5-oxo-N-(4-(tetrahydro-2H-pyran-4-yloxy)benzyl)-2,5-dihydro-1H-pyrrole-3-carboxamide], the concentration for half-maximal inhibition (IC50) was 0.27 µM.

With `CN1CC(C(=O)NCc2ccc(C(=O)N3CCCCC3)cc2)=C(O)C1=O` [Example 24, 4-hydroxy-1-methyl-5-oxo-N-(4-(piperidine-1-carbonyl)benzyl)-2,5-dihydro-1H-pyrrole-3-carboxamide], the half-maximal inhibitory concentration (IC50) came out at 9.29 µM.

Turning to `Cc1ccc(Oc2ccc(CNC(=O)C3=C(O)C(=O)N(C)C3)cc2)c(C)c1` [Example 34, N-(4-(2,4-dimethylphenoxy)benzyl)-4-hydroxy-1-methyl-5-oxo-2,5-dihydro-1H-pyrrole-3-carboxamide], the IC50 turned out to be 0.0321 µM.

For `CN1CC(C(=O)NCc2cccc(-c3ccccc3Cl)c2)=C(O)C1=O` [Example 62, N-((2′-chlorobiphenyl-3-yl)methyl)-4-hydroxy-1-methyl-5-oxo-2,5-dihydro-1H-pyrrole-3-carboxamide], the 50% inhibitory concentration (IC50) was 0.246 µM.

For `CN1CC(C(=O)NCc2cccc(-c3ccccc3F)c2)=C(O)C1=O` [Example 63, N-((2′-fluorobiphenyl-3-yl)methyl)-4-hydroxy-1-methyl-5-oxo-2,5-dihydro-1H-pyrrole-3-carboxamide], the concentration for half-maximal inhibition (IC50) amounted to 0.249 µM.

On to `CC(=O)c1cccc(-c2cccc(CNC(=O)C3=C(O)C(=O)N(C)C3)c2)c1` [Example 66, N-((3′-acetylbiphenyl-3-yl)methyl)-4-hydroxy-1-methyl-5-oxo-2,5-dihydro-1H-pyrrole-3-carboxamide], for which the IC50 was 0.285 µM.

With `CN1CC(C(=O)NCc2cccc(-c3ccc(CNS(C)(=O)=O)cc3)c2)=C(O)C1=O` [Example 83, 4-hydroxy-1-methyl-N-((4′-(methylsulfonamidomethyl)biphenyl-3-yl)methyl)-5-oxo-2,5-dihydro-1H-pyrrole-3-carboxamide], the IC50 was determined as 0.257 µM.

In the case of `CC(=O)NCc1ccc(-c2cccc(CNC(=O)C3=C(O)C(=O)N(C)C3)c2)cc1` [Example 85, N-((4′-(acetamidomethyl)biphenyl-3-yl)methyl)-4-hydroxy-1-methyl-5-oxo-2,5-dihydro-1H-pyrrole-3-carboxamide], the concentration for half-maximal inhibition (IC50) amounted to 0.241 µM.

Consider `C[C@@H](NC(=O)C1=C(O)C(=O)N(C)C1)c1cccc(-c2cccc(C(F)(F)F)c2)c1` [Example 91, (R)-4-hydroxy-1-methyl-5-oxo-N-(1-(3′-(trifluoromethyl)biphenyl-3-yl)ethyl)-2,5-dihydro-1H-pyrrole-3-carboxamide], for which the IC50 was determined as 0.271 µM.

Regarding `C[C@@H](NC(=O)C1=C(O)C(=O)N(C)C1)c1cccc(-c2cccc(F)c2)c1` [Example 92, (R)-N-(1-(3′-fluorobiphenyl-3-yl)ethyl)-4-hydroxy-1-methyl-5-oxo-2,5-dihydro-1H-pyrrole-3-carboxamide], the IC50 stood at 0.246 µM.

`C[C@@H](NC(=O)C1=C(O)C(=O)N(C)C1)c1cccc(-c2cccc(C#N)c2)c1` [Example 96, (R)-N-(1-(3′-cyanobiphenyl-3-yl)ethyl)-4-hydroxy-1-methyl-5-oxo-2,5-dihydro-1H-pyrrole-3-carboxamide]: the IC50 is 0.277 µM.

Turning to `C[C@@H](NC(=O)C1=C(O)C(=O)N(C)C1)c1cccc(-c2cccc(C(N)=O)c2)c1` [Example 103, (R)-N-(1-(3′-carbamoylbiphenyl-3-yl)ethyl)-4-hydroxy-1-methyl-5-oxo-2,5-dihydro-1H-pyrrole-3-carboxamide], the IC50 is 0.0496 µM.

`CC(=O)NCc1ccc(-c2cccc([C@@H](C)NC(=O)C3=C(O)C(=O)N(C)C3)c2)cc1` [Example 104, (R)-N-(1-(4′-(acetamidomethyl)biphenyl-3-yl)ethyl)-4-hydroxy-1-methyl-5-oxo-2,5-dihydro-1H-pyrrole-3-carboxamide]: the half-inhibitory concentration (IC50) came out at 0.254 µM.

In the case of `CCN1CC(C(=O)N[C@@H]2CCC(c3ccccc3)c3ccccc32)=C(O)C1=O` (stereo partly drawn) [Example 146, 1-ethyl-4-hydroxy-5-oxo-N-((1R)-4-phenyl-1,2,3,4-tetrahydronaphthalen-1-yl)-2,5-dihydro-1H-pyrrole-3-carboxamide], the half-inhibitory concentration (IC50) came to 0.05 µM.

For `CN1CC(C(=O)NCC2CCN(C(=O)c3ccc(Cl)c(Cl)c3)CC2)=C(O)C1=O` [Example 157, N-((1-(3,4-dichlorobenzoyl)piperidin-4-yl)methyl)-4-hydroxy-1-methyl-5-oxo-2,5-dihydro-1H-pyrrole-3-carboxamide], the IC50 was 4.84 µM.

As for `O=C(N[C@H]1CC[C@@H](c2ccccc2)CC1)C1=C(O)C(=O)N(CCCC(F)(F)F)C1` [Example 168, 4-hydroxy-5-oxo-N-(cis-4-phenylcyclohexyl)-1-(4,4,4-trifluorobutyl)-2,5-dihydro-1H-pyrrole-3-carboxamide], the IC50 was 0.252 µM.

For the molecule `O=C(N[C@H]1CC[C@@H](c2ccccc2)CC1)C1=C(O)C(=O)N(CC(F)(F)C(F)(F)F)C1` [Example 169, 4-hydroxy-5-oxo-1-(2,2,3,3,3-pentafluoropropyl)-N-(cis-4-phenylcyclohexyl)-2,5-dihydro-1H-pyrrole-3-carboxamide], the IC50 worked out at 7.17 µM.

Take `O=C(N[C@H]1CC[C@@H](c2ccccc2)CC1)C1=C(O)C(=O)N(CCS(=O)(=O)c2ccccc2)C1` [Example 172, 4-hydroxy-5-oxo-N-(cis-4-phenylcyclohexyl)-1-(2-(phenylsulfonyl)ethyl)-2,5-dihydro-1H-pyrrole-3-carboxamide]: the concentration for half-maximal inhibition (IC50) is 4.72 µM.

`CN(CCN1CC(C(=O)N[C@H]2CC[C@@H](c3ccccc3)CC2)=C(O)C1=O)C(=O)/C=C/C(F)(F)F` [Example 178, 4-hydroxy-5-oxo-N-(cis-4-phenylcyclohexyl)-1-(2-((E)-4,4,4-trifluoro-N-methylbut-2-enamido)ethyl)-2,5-dihydro-1H-pyrrole-3-carboxamide]: the concentration for half-maximal inhibition (IC50) worked out at 9.92 µM.

For `O=C(N[C@H]1CC[C@@H](c2ccccc2)CC1)C1=C(O)C(=O)N(C2CCN(c3ccc(F)cc3)CC2)C1` [Example 179, 1-(1-(4-fluorophenyl)piperidin-4-yl)-4-hydroxy-5-oxo-N-(cis-4-phenylcyclohexyl)-2,5-dihydro-1H-pyrrole-3-carboxamide], the concentration for half-maximal inhibition (IC50) was found to be 3.09 µM.

As to `CNCCCN1CC(C(=O)N[C@H]2CC[C@@H](c3ccccc3)CC2)=C(O)C1=O` [Example 181, 4-hydroxy-1-(3-(methylamino)propyl)-5-oxo-N-(cis-4-phenylcyclohexyl)-2,5-dihydro-1H-pyrrole-3-carboxamide], the IC50 is 5.73 µM.

In the case of `CN1CC(N2CC(C(=O)N[C@H]3CC[C@@H](c4ccccc4)CC3)=C(O)C2=O)CC1=O` (stereo partly drawn) [Example 196, 4-hydroxy-1-(1-methyl-5-oxopyrrolidin-3-yl)-5-oxo-N-(cis-4-phenylcyclohexyl)-2,5-dihydro-1H-pyrrole-3-carboxamide], the IC50 stood at 8.25 µM.

As for `CN(CCN1CC(C(=O)N[C@H]2CC[C@@H](c3ccccc3)CC2)=C(O)C1=O)c1ccccc1` [Example 210, 4-hydroxy-1-(2-(methyl(phenyl)amino)ethyl)-5-oxo-N-(cis-4-phenylcyclohexyl)-2,5-dihydro-1H-pyrrole-3-carboxamide], the IC50 was 6.57 µM.

For `CCN1CC(C(=O)NCC2CCc3cnc(-c4ccc(Cl)c(Cl)c4)n3C2)=C(O)C1=O` (centres unmarked) [Example 214, N-((3-(3,4-Dichlorophenyl)-5,6,7,8-tetrahydroimidazo[1,5-a]pyridin-6-yl)methyl)-1-ethyl-4-hydroxy-5-oxo-2,5-dihydro-1H-pyrrole-3-carboxamide], the IC50 was determined as 0.46 µM.

As to `CCN1CC(C(=O)N[C@@H]2CCc3cc(-c4ccccc4)ccc32)=C(O)C1=O` [Example 218, (R)-1-ethyl-4-hydroxy-5-oxo-N-(5-phenyl-2,3-dihydro-1H-inden-1-yl)-2,5-dihydro-1H-pyrrole-3-carboxamide], the concentration for half-maximal inhibition (IC50) was found to be 0.0435 µM.
